{
  "source": "patent US4493796A",
  "about": "“Didemnins A, B, C, and derivatives thereof, as antiviral agents” (Board of Trustees, Univ. of Ill., priority 1984, dated 1985)",
  "key": {"[1]": {"test_system": "Coxsackie A21 virus (RNA)", "assay": "Agar diffusion plaque inhibition assay, COE", "type": "cell-based", "conditions": "50 μg of test compound"}, "[2]": {"test_system": "Herpes simplex virus type II (DNA)", "assay": "Agar diffusion plaque inhibition assay, HSV-2", "type": "cell-based", "conditions": "50 μg of test compound"}, "[3]": {"test_system": "Parainfluenza 3 virus (RNA)", "type": "cell-based", "conditions": "HA-1; 50 μg of test compound"}, "Equine rhinovirus (RNA)": {"test_system": "Equine rhinovirus (RNA)", "assay": "Agar diffusion plaque inhibition assay, E.R.", "type": "cell-based", "conditions": "50 μg of test compound"}, "cells": {"test_system": "cells", "assay": "Agar diffusion plaque inhibition assay, zone of cytotoxicity (cell death)", "type": "cell-based", "conditions": "50 μg of test compound", "description": "These tests were performed by the methods described in the following published reference: (H. E. Renis, C. A. Hollowell, and G. E. Underwood, J. Med. Chem., Vol 10, pp 777-782 (1967)). Both DNA and RNA-containing viruses were used. The results are presented below as the zone of cytotoxicity (cell death)/zone of viral plaque inhibition for 50 μg of test compound."}, "[4]": {"test_system": "Herpes simplex virus type I (DNA)", "assay": "Agar diffusion plaque inhibition assay, HSV-1", "type": "cell-based", "conditions": "50 μg of test compound"}, "Vaccinia virus (DNA)": {"test_system": "Vaccinia virus (DNA)", "type": "cell-based", "conditions": "VACC.; 50 μg of test compound"}, "PR-8 Influenza (RNA)": {"test_system": "PR-8 Influenza (RNA)", "type": "cell-based, Influenza virus", "conditions": "PR8; 50 μg of test compound"}},
  "data": [
    {"smiles": "COc1ccc(C[C@H]2C(=O)O[C@H](C)[C@H](NC(=O)[C@@H](CC(C)C)N(C)C(=O)C3CCCN3C(=O)C(C)OC(C)=O)C(=O)NC(CC(C)C)C(OC(C)=O)CC(=O)OC(C(C)C)C(=O)C(C)C(=O)N[C@@H](CC(C)C)C(=O)N3CCC[C@H]3C(=O)N2C)cc1", "note": "(some centres unmarked) [Diacetyl]", "values": [
      {"measurement": "zone of viral plaque inhibition", "setting": "[1]", "result": 3},
      {"measurement": "zone of viral plaque inhibition", "setting": "[2]", "result": 4},
      {"measurement": "zone of viral plaque inhibition", "setting": "[3]", "result": 0},
      {"measurement": "zone of viral plaque inhibition", "setting": "Equine rhinovirus (RNA)", "result": 4},
      {"measurement": "zone of cytotoxicity (cell death)", "setting": "cells; COE", "result": 3},
      {"measurement": "zone of cytotoxicity (cell death)", "setting": "cells; E.R.", "result": 2},
      {"measurement": "zone of cytotoxicity (cell death)", "setting": "cells; HA-1", "result": 1},
      {"measurement": "zone of cytotoxicity (cell death)", "setting": "cells; HSV-1", "result": 3},
      {"measurement": "zone of cytotoxicity (cell death)", "setting": "cells; HSV-2", "result": 3},
      {"measurement": "zone of cytotoxicity (cell death)", "setting": "cells; PR8", "result": 3},
      {"measurement": "zone of cytotoxicity (cell death)", "setting": "cells; VACC.", "result": 3},
      {"measurement": "zone of viral plaque inhibition", "setting": "[4]", "result": 4},
      {"measurement": "zone of viral plaque inhibition", "setting": "Vaccinia virus (DNA)", "result": 4},
      {"measurement": "zone of viral plaque inhibition", "setting": "PR-8 Influenza (RNA)", "result": 0}
    ]}
  ]
}
